According to patent US9908879B2, “P2X3 and/or P2X2/3 compounds and methods” (Asana Biosciences, LLC, priority 2013, dated 2018):

What was measured:
P2X3 = biological target: T1, P2X3 (UniProt P56373); experiment: FLIPR intracellular calcium assay, P2X3; format: cell-based, human or rat; conditions: agonist at EC75, species of receptor not given
T1 sequence (P56373 1-397): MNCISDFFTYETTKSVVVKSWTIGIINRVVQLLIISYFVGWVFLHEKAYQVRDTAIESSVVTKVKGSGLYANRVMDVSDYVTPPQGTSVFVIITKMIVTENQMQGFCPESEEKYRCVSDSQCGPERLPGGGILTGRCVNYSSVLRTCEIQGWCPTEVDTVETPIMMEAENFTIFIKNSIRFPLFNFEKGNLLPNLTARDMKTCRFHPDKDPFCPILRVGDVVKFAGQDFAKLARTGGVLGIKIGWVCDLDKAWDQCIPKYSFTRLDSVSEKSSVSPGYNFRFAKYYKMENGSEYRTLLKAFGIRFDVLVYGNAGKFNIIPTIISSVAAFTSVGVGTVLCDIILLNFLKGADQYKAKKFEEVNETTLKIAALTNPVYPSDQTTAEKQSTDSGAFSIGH
Description: (§1) The FLIPR® assay utilizes cells which express human or rat P2X3 or P2X2/3 receptors. Recombinant cells expressing hP2X3 (Cat #6188) and hP2X2/3 (Cat #6179) were procured from Chantest Corp. Rat P2X2 (NCBI Accession No: U14414) was amplified by PCR from PC12 cDNA (a rat adrenal medulla cell line). The PCR product obtained containing the protein coding sequence of rat P2X2 was cloned into EcoRV-digested and dephosphorylated vector pIRES-puro3 within the multiple cloning site (MCS). See, FIG. 1A.
(§2) Cryo-vial containing 6×10^6 cells (human P2X3-HEK/human P2X2/3-TRex293/rat P2X2/3-TRex293/rat P2X3 TRex-CHO) was thawed in a 37° C. water bath. Cells were suspended in 20 mL of respective cell plating media (See annexure for composition) in a 50 mL centrifuge tube. The cell viability was checked with the help of Trypan Blue dye. Upon washing, cells were plated in a black 384-well clear bottomed, sterile poly-D-lysine coated plate such that, each well contained 10,000 cells (15,000/well for hP2X3) in 30 μL cell plating media. The plate was incubated in a 5% CO2 incubator at 37° C. for 24 h.
(§3) The next day, prior to the assay, the cell plating media was removed from each well by decanting and gentle tapping. Thirty μL of FLIPR Calcium 4 dye solution was added to each well. The plate was incubated at 37° C. for 45 min (60 min for hP2X3). The plate was next equilibrated at room temperature for 15 minutes before placing it in a 384 well FLIPR for the assay.
(§4) Compounds were dissolved in DMSO and serially diluted following 11 point half log (3.16 fold) dilution with a starting concentration of 2 mM. Dilutions were mixed with assay buffer just before performing the assay.
(§5) Compounds were added to the respective wells of the assay-ready cell plate with the help of the FLIPR and fluorescence readings were captured for 5 min to observe any possible agonistic property of the compounds. The plate was then incubated at room temperature for 15 min. The cells were stimulated with respective agonist EC75 concentration and the fluorescence readings were captured for another 5 min by FLIPR. The difference in fluorescence readings in presence of the compounds were compared with that of the control wells (wells having no compound) to calculate the inhibitory potency of the compounds. The IC50 values of the compounds were determined using the Graph pad Prism software.

P2X2/3 = biological target: T2, P2X2/3 (UniProt P56373+Q9UBL9); experiment: FLIPR intracellular calcium assay, P2X2/3; format: cell-based, human or rat; conditions: agonist at EC75, species of receptor not given
T2 construct: hP2X2/3 (Cat #6179)
T2 sequence (P56373 1-397): T1 sequence (P56373 1-397)
T2 sequence (Q9UBL9 1-471): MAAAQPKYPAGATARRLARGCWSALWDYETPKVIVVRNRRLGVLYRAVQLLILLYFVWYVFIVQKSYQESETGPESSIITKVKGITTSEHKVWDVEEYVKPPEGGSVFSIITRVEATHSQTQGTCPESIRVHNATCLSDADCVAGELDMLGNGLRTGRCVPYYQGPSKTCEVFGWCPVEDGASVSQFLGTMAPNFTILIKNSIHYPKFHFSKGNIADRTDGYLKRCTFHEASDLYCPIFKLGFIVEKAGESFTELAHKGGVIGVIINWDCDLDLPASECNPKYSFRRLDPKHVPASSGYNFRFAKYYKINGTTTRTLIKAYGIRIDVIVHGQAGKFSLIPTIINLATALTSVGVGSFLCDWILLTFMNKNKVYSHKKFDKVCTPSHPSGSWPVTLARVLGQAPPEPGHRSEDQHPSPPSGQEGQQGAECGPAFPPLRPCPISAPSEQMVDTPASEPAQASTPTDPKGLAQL
Description: as §1, §2, §3, §4, §5

[1] = tested on: formalin-induced hind limb flinches; experiment: Formalin induced pain (Automated Nociception Analyzer test); format: in vivo; conditions: rat, oral gavage 100 mg/kg, 30 min before footpad formalin injection
Experimental: Male Sprague Dawley rats of young adult age group and body weight range of 200-250 g were included in the study. Animals were housed under a 12 h light/dark cycle with food and water ad libitum. Animals were acclimatized in the observation chambers of Automated Nociception Analyzer (ANA) for 45-60 min, twice daily for two days prior to the study day. On the day of the study, metal bands were glued to the plantar surface of the right hind paw of each animal enrolled in the study set and kept in plastic observation chambers for 10-15 min. Formalin injection was done in the animals after 0.5 or 1 h of oral treatment with test compound or vehicle (20% polyethylene glycol, 1% TweenTM 80 reagent, 79% water). Formalin injection of the animals was done with 50 μL of 2.5% formalin (freshly prepared from formaldehyde solution, Sigma, USA, Cat # F8775) injected subcutaneously in to the dorsum of right hind paw. Animals were placed back to their respective recording chambers of ANA immediately after injection. […] count data for each animal was recorded from 1 to 60 min post formalin injection, using ANA motion analysis software. The study was analyzed in 2 phases, the early phase extended from 0-10 min and second phase extended from 11-60 min post formalin injection. The data was collected in 5 min time bins and the counts of each bin were added up for total count of the phase. […]

[2] = tested on: acetic acid induced writhing (visceral pain); experiment: Acetic acid induced writhing test; format: in vivo; conditions: mouse, oral gavage 20, 40 and 60 mg/kg, 30 min before i.p. acetic acid, counted 15 min
Experimental: Swiss albino mice of 30-40 g were included in the study. The mice were given an intraperitoneal injection of 0.7% v/v acetic acid solution at an injection volume of 10 mL/kg, 30 min after oral administration of vehicle or test article control. Test articles were administered, typically, at doses between 20 and 60 mg/kg. The mice were placed individually into glass chambers. The number of writhes produced in these animals was counted for 15 min following acetic acid administration. For scoring purposes writhing was indicated by stretching of the abdomen with simultaneous stretching of at least one hind limb. See, e.g., FIG. 4. Statistical analysis was done with One way ANOVA followed by Dunnett's multiple comparison tests. Comparison was done between treatment groups and vehicle with respect to total number of writhes and p<0.05 was considered statistically significant. Each group comprised of 6 animals.

| SMILES | IC50 (P2X3) [nM] | IC50 (P2X2/3) [nM] | second phase flinching response to formalin [1] | pain responses (writhes) after acetic acid [2] |
| --- | --- | --- | --- | --- |
| Cc1ccc(-c2cnc3c(N4CCC(C)CC4)cc(C(=O)NCc4ccc(C)[n+]([O-])c4)cn23)s1 [Example 117] | 1 to 100 | 1 to 100 |  |  |
| CCc1cnnn1-c1cc(C(=O)NCc2ccc(C)nc2)cn2c(-c3ccc(C)s3)cnc12 [Example 22] |  |  | attenuated | clear dose-related reduction |
| Cc1ccc(-c2cnc3c(-n4nnnc4C4CCC4)cc(C(=O)N[C@@H](C)c4nnc[nH]4)cn23)s1 [Example 165] | 1 to 100 | 1 to 100 |  |  |
| CCCCc1cnc2c(N3CCC(C)CC3)cc(C(=O)N[C@@H](C)c3nnc[nH]3)cn12 [Example 9, (S)—N-(1-(4H-1,2,4-Triazol-3-yl)ethyl)-3-butyl-8-(4-methylpiperidin-1-yl)imidazo[1,2-a]pyridine-6-carboxamide] | 1000 to 10000 | 1000 to 10000 |  |  |
| Cc1ccc(-c2cnc3c(-n4nnnc4C4CC4)cc(C(=O)N[C@@H](C)c4nnc[nH]4)cn23)s1 [Example 167] | 1 to 100 | 100 to 1000 |  |  |
| Cc1ccc(-c2cnc3c(N4CCC(F)(F)CC4)cc(C(=O)NCc4ccc(C)[n+]([O-])c4)cn23)s1 [Example 123] | > 10000 | 1 to 100 |  |  |
| Cc1ccc(-c2cnc3c(Nc4ccccc4)cc(C(=O)NCc4ccc(C)[n+]([O-])c4)cn23)s1 [Example 89] | 1 to 100 | 100 to 1000 |  |  |
| Cc1ccc(CNC(=O)c2cc(N3CCC(C)CC3)c3ncc(-c4ccc(Cl)s4)n3c2)c[n+]1[O-] [Example 119] | 1 to 100 | 100 to 1000 |  |  |
| Cc1ccc(-c2cnc3c(N4CCC(C)CC4)cc(C(=O)NCc4ccc[n+]([O-])c4)cn23)s1 [Example 147] | 1000 to 10000 | 100 to 1000 |  |  |

More lines, main results first:

| IC50 (P2X3) [nM] | IC50 (P2X2/3) [nM] | SMILES | second phase flinching response to formalin [1] | pain responses (writhes) after acetic acid [2] |
| --- | --- | --- | --- | --- |
| 100 to 1000 | 100 to 1000 | Cc1cnc(-c2cnc3c(N4CCC(C)CC4)cc(C(=O)NCc4ccc(C)[n+]([O-])c4)cn23)s1 [Example 125] |  |  |
| 1 to 100 | 100 to 1000 | Cc1ccc(-c2cnc3c(N4CCC(C(F)(F)F)CC4)cc(C(=O)NCc4ccc(C)[n+]([O-])c4)cn23)s1 [Example 131] |  |  |
| 1 to 100 |  | CCCSc1cnc2c(N3CCC(C)CC3)cc(C(=O)NCc3ccc(C)[n+]([O-])c3)cn12 [Example 114] |  |  |
| 1 to 100 | 1 to 100 | Cc1ccc(-c2cnc3c(N4CCC(C)(C)CC4)cc(C(=O)NCc4ccc(C)[n+]([O-])c4)cn23)s1 [Example 122] |  |  |
| 100 to 1000 | 100 to 1000 | Cc1ccc(-c2cnc3c(NC4CCCCC4)cc(C(=O)NCc4ccc(C(F)(F)F)[n+]([O-])c4)cn23)s1 [Example 124] |  |  |
| > 10000 | 1 to 100 | Cc1ccc(-c2cnc3c(N(C)C4CCCCC4)cc(C(=O)NCc4ccc(C)[n+]([O-])c4)cn23)s1 [Example 126] |  |  |
| 1000 to 10000 | 100 to 1000 | Cc1ccc(-c2cnc3c(N4CCC(F)(F)CC4)cc(C(=O)N[C@@H](C)C4=NN=CC4)cn23)s1 [Example 143] |  |  |
| > 10000 | 1 to 100 | COc1ccc(CNC(=O)c2cc(-n3nnnc3C3CCC3)c3ncc(-c4ccc(C)s4)n3c2)cn1 [Example 163] |  |  |
| > 10000 | 1 to 100 | Cc1ccc(-c2cnc3c(N4CCC(F)CC4)cc(C(=O)NCc4ccc(C)[n+]([O-])c4)cn23)s1 [Example 127] |  |  |
| 1 to 100 | 1 to 100 | Cc1ccc(-c2cnc3c(N4CCC(CF)CC4)cc(C(=O)NCc4ccc(C)[n+]([O-])c4)cn23)s1 [Example 132] |  |  |
| 1 to 100 | 1 to 100 | Cc1ccc(-c2cnc3c(NC4CCCCC4)cc(C(=O)NCc4ccc(C)[n+]([O-])c4)cn23)s1 [Example 120] |  |  |
